Reference: US12251373B2, “Compounds and methods of treating retinal degeneration” (CASE WESTERN RESERVE UNIVERSITY, priority 2017, dated 2025)

What was measured:
[1] = Quantification of YC-001 in mouse eye by HPLC; assay type: in vivo
Experimental: To measure the amount of YC-001 in the eye following systemic delivery, YC-001 was administered to C57BL6 mice by i.p. injection at a dose of 200 mg kg^−1 bw. Mice then were euthanized at 30 min, 3 h and 24 h after these injections, and their eyes were removed for analysis. Eyes from two mice under the same treatment were homogenized on ice in 1 mL of PBS:methanol (1:1 ratio). Four-mL of hexanes were then added to the homogenized sample, and the mixture was vortexed for 15 s. The mixture was centrifuged at 3,220 g for 15 min at 4° C. to separate the hexanes from the aqueous layer. From the top hexane layer, 3.5 mL was transferred to a glass vial. This sample was then dried in a Savant speed vacuum concentrator (Thermofisher, Waltham, Massachusetts, USA) and dissolved in 300 μL methanol. One hundred-μL of dissolved sample were injected into an HPLC system connected to an Agilent Sil column (5 μm, 4.6×250 mm; Agilent Technologies, Santa Clara, CA) for separation with 10% ethyl acetate in hexanes at a flow rate 1.4 mL min^−1. A chromatogram of absorption at 340 nm was then obtained. A YC-001 standard was subjected to the same procedures as the ocular samples and used to establish a retention time at 13.2 min. By comparing ocular samples to its standard curve of YC-001, the amount of YC-001 was then quantified in pmol eye^−1 at different time points after its systemic administration. The identity of YC-001 in the peak fraction with a retention time of 13.2 min was confirmed by LC-MS using the same chromatography method as applied for HPLC.

Abca4−/−Rdh8−/− mice = assay: Bright light-induced retinal degeneration; assay type: in vivo, mouse; conditions: 50 or 200 mg kg−1 bw i.p. 30 min before 10,000 lux for 30 min; SD-OCT and HE seven days later
Experimental: Abca4^−/−Rdh8^−/−42 mice with a 129Sv/Ev or C57BL/6 mixed background were used for light-induced retinal degeneration assays. […] Male and female C57BL/6 mice (Jackson Laboratory, Bar Harbor, ME) at six weeks of age were used to test the effects of YC-001 treatment on the retinoid cycle and bw as well as to determine parenterally administrated YC-001 enter the eyes. YC-001 was dissolved in DMSO at 80-160 mg mL^−1, and the solution was provided to mice by i.p. injection. All mice were housed and maintained in a 12 h light (≤10 lux)/12 h dark cycle in the Animal Resource Center at the School of Medicine, CWRU. […]
Retinal degeneration was initiated by exposing Abca4^−/−Rdh8^−/− mice for 30 min to white light with an intensity of 10,000 lux (150-W spiral lamp, Hampton Bay, Home Depot, Atlanta, GA USA). […] Retinal structures were analyzed by SD-OCT seven days after bright light exposure. […]
To assess the effect of YC-001 treatment on Abca4^−/−Rdh8^−/− mice following bright light-induced retinal degeneration, we performed ultrahigh-resolution SD-OCT (Bioptigen, Morrisville, NC) for in vivo imaging of mouse retinas. […] To measure changes to photoreceptors in the retinas challenged with bright light and assess the effect of YC-001 on retinal protection, the thickness of the ONL was measured along the scanned SD-OCT image at 8 points from the nasal to temporal end of the retina. […]

## O=C1OCC(c2ccc(Cl)s2)=C1c1cccs1 [YC-001]
[1]; 0.5 h after i.p. injection at 200 mg kg−1 bw
  amount of YC-001 per eye: About 70 pmol per eye
[1]; 3 h after i.p. injection at 200 mg kg−1 bw
  amount of YC-001 per eye: 280 pmol per eye
[1]; 24 h after i.p. injection at 200 mg kg−1 bw
  amount of YC-001 per eye: undetectable
Abca4−/−Rdh8−/− mice
  protection of the ONL from light-induced damage: dose-dependent protection of the ONL
